Laboratory results as given in the METLIN SMRT retention time set (Domingo-Almenara et al. 2019).

Assay: gradient 5% acetonitrile 3 min, to 50% in 2 min, to 85% in 15 min, held 3 min, 100 µL/min
Settings: column: Zorbax Extend-C18 2.1 x 50 mm; eluents: water / acetonitrile, 0.1% formic acid
Procedure, shortened: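 The mobile phases were water and acetonitrile, each with 0.1% formic acid, pumped at 100 μL/min through a Zorbax Extend-C18 column (2.1 × 50 mm, 1.8 μm). Pure standards were injected as mixtures of ~100 molecules and detected by a quadrupole time-of-flight mass spectrometer in positive and negative ionization mode. Retention time came from computationally picked adduct peaks, each inspected by hand.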

For CCOC(=O)Cn1c(CN(C)Cc2ccccc2)nc2c1c(=O)n(C)c(=O)n2C, the RP-LC retention time was 643 s.

Work on CCCNC(=O)C1CCCN(c2ccc(SCC(=O)Nc3cccc(Cl)c3)nn2)C1 (centres undefined) yielded an RP-LC retention time of 683 s.

Work on O=C(Cn1nc2c3sc(N4CCCCC4)nc3ncn2c1=O)Nc1ccc(Br)cc1 yielded an RP-LC retention time of 848 s.

Compound Cn1c(C2CCN(C(=O)Nc3cccc(Br)c3)CC2)cc(=O)n2nccc12 has an RP-LC retention time of 714 s.

For O=C(c1ccoc1)N1CCCC(c2cc(-c3ccccc3)n[nH]2)C1 (centres undefined), the RP-LC retention time was 594 s.

Work on Cc1nc2c(sc3nc(-c4ccccc4)ccc32)c(=O)n1CC(=O)Nc1ccc(F)c(Cl)c1 yielded an RP-LC retention time of 1140 s.

Compound CC(C)(C)C1CCc2[nH]nc(C(N)=O)c2C1 (centres undefined) has an RP-LC retention time of 745 s.

In the case of COCCCNC(=O)c1ccc2c(c1)nc(C)n2-c1ccc(Br)cc1, the RP-LC retention time is reported as 629 s.

With O=c1c2nc(-c3ccc(Br)cc3)cn2ccn1-c1cccc(F)c1 the RP-LC retention time was 898 s.

Work on Cc1nnc(N2CCCC(C(=O)NCCCOC(C)C)C2)c2nn(-c3ccc(Cl)cc3)c(C)c12 (centres undefined) yielded an RP-LC retention time of 714 s.

Compound CN1CC2(CCCC2)N(C(=O)COc2ccc(F)cc2)CC1=O has an RP-LC retention time of 740 s.

In the case of Cc1ccc(NC(=O)C2CCCN2S(=O)(=O)c2cc3c(cc2C)NC(=O)C(C)O3)cc1Cl (centres undefined), the RP-LC retention time is reported as 892 s.

With O=C(NC1CCCc2ccccc21)c1ccc2c(c1)OCCCO2 (centres undefined) the RP-LC retention time was 958 s.

Work on COC(=O)c1ccc(NC(=O)C2CCN(c3cc(N4CCCCC4)ncn3)CC2)cc1 yielded an RP-LC retention time of 715 s.

In the case of COc1ccc(C(C)NS(=O)(=O)c2cc(-c3nc(C(C)(C)C)cs3)cs2)cc1 (centres undefined), the RP-LC retention time is reported as 1240 s.

Compound Cc1cnc(C2CC2)n1CCNC(=O)c1cccn1C has an RP-LC retention time of 579 s.

Compound CCCn1c(=O)sc2cc(S(=O)(=O)N3CCC(C(=O)NCc4ccco4)CC3)ccc21 has an RP-LC retention time of 848 s.

c1ccc(-c2ccc3c(c2)NC(C2Nc4cc(-c5ccccc5)ccc4O2)O3)cc1 (centres undefined) gave an RP-LC retention time of 1240 s.

For COc1ccc(-c2nnc(CC(=O)NCC(C)C)o2)cc1, the RP-LC retention time was 705 s.

With O=C(CN1CCC2(CC1)N=C(c1ccc(Cl)cc1)C(=O)N2)Nc1ccc2c(c1)OCO2 the RP-LC retention time was 681 s.

In the case of COC(=O)c1ccc(Nc2nc(C)nc3c2CCC3)cc1, the RP-LC retention time is reported as 615 s.

Cc1cc(Cl)ccc1OCc1nc(-c2ccc3c(c2)nnn3CCC(=O)N2CCCC2)no1 showed an RP-LC retention time of 1050 s.

For O=C(NCCc1ccccc1)c1nc(Cn2c(=O)oc3ccc(Cl)cc32)no1, the RP-LC retention time was 966 s.

With CCc1ccc(OCc2nc(CCN(C)C(=O)Nc3ccc(OC)cc3)no2)cc1 the RP-LC retention time was 949 s.

With CCN1C(=O)c2cccnc2Sc2cc(NC(=O)C3(c4ccccc4)CC3)ccc21 the RP-LC retention time was 937 s.

COc1cc(CNC(=O)c2nc(CCS(=O)(=O)c3ccc(C)cc3)no2)cc(OC)c1OC gave an RP-LC retention time of 825 s.

Compound CC(C)CNC(=O)c1cc(=O)[nH]c2ccccc12 has an RP-LC retention time of 729 s.

Compound COCc1noc(C2CCCCN2C(=O)Cc2c(C)noc2C)n1 (centres undefined) has an RP-LC retention time of 673 s.

For CC(C)n1c(=O)sc2cc(S(=O)(=O)N3CCC(C(=O)NC4CCCCC4)CC3)ccc21, the RP-LC retention time was 935 s.

Compound COc1ccc(Cn2nc3c(S(=O)(=O)N4CCCCCC4)cccn3c2=O)cc1 has an RP-LC retention time of 909 s.

With CCCC(C)C(=O)NC1CCN(C2=NS(=O)(=O)C(c3ccc(CC)cc3)=C2C)CC1 (centres undefined) the RP-LC retention time was 927 s.

CCOc1ccc(-n2ccnc(NC(=O)Nc3ccc(C)c(C)c3)c2=O)cc1 gave an RP-LC retention time of 1090 s.

Work on CCn1ccc2sc(C)c(C(=O)NCc3ccccc3F)c2c1=O yielded an RP-LC retention time of 818 s.

CCNC(=O)C1CCN(S(=O)(=O)c2cc(Cl)ccc2OC)CC1 gave an RP-LC retention time of 726 s.

Work on Cc1ccc2c(=O)c3c([nH]c2c1C)CCN(CC(=O)Nc1cc(F)ccc1F)C3 yielded an RP-LC retention time of 638 s.

For Cc1noc2ncnc(N3CCN(c4ccccn4)CC3)c12, the RP-LC retention time was 562 s.

For CCSCCOC(=O)C1=C(C)NC2=C(C(=O)CCC2)C1c1ccc(C(=O)OC)cc1 (centres undefined), the RP-LC retention time was 892 s.

With CCCCN(C)C(=O)C1CCN(S(=O)(=O)c2ccc3c(c2)CCCC(=O)N3)CC1 the RP-LC retention time was 719 s.

With Nc1nc(-c2ccccc2Cl)nn1C(=O)C1CC1 the RP-LC retention time was 827 s.

Cc1ccc(S(=O)(=O)N(C)CC2CCOCC2)cc1Cl showed an RP-LC retention time of 894 s.

With Cc1cc(NCCCn2ccnc2)n2nc(C(F)(F)F)c(-c3ccccc3)c2n1 the RP-LC retention time was 591 s.

With Cc1ccc(CNC(=O)C2(C)Cn3nc(C(=O)NCc4cccc(C)c4)cc3C(=O)N2C)cc1 (centres undefined) the RP-LC retention time was 824 s.

Work on CCOC(=O)C1CCCN(S(=O)(=O)c2cc(-c3nnc(-c4ccccc4)o3)ccc2OC)C1 (centres undefined) yielded an RP-LC retention time of 1020 s.

In the case of Cn1c(=O)c2nc(S(=O)(=O)CCC(=O)Nc3ccc(Cl)cc3)n(C)c2n(C)c1=O, the RP-LC retention time is reported as 741 s.

With CCCc1ccc(S(=O)(=O)N2CCCC2c2nc(-c3ccc(Cl)cc3)no2)cc1 (centres undefined) the RP-LC retention time was 1380 s.

Work on CCc1cccc(NC(=O)N2CCCC2c2nc(-c3ccc(OC)cc3)no2)c1 (centres undefined) yielded an RP-LC retention time of 925 s.

Compound CCN(CC)CCNC(=O)C1CCN(c2nccnc2Sc2ccccc2)CC1 has an RP-LC retention time of 657 s.

COc1ccc(Cc2nn3c(Cc4ccc(OC)cc4)nnc3s2)cc1 showed an RP-LC retention time of 913 s.

O=C(NCCn1c(-c2ccccc2)nc2cccnc21)Nc1ccc2c(c1)OCO2 gave an RP-LC retention time of 722 s.

O=C(NCCc1nc2cccnc2n1Cc1ccccc1)NCc1ccc(F)cc1 showed an RP-LC retention time of 738 s.

Compound CCOC(=O)c1ccccc1NC(=O)Cn1c(-c2ccc(F)cc2)nc(C)cc1=O has an RP-LC retention time of 1320 s.

Compound Cc1cccc(NC(=O)CN2C(=O)NC3(CCCCC3)C2=O)c1C has an RP-LC retention time of 765 s.

Compound CCc1nnc(-c2ccc3ccn(CC(=O)Nc4ccc(Cl)cn4)c3c2)o1 has an RP-LC retention time of 843 s.

CC(C)n1c(CCNC(=O)c2cc(F)cc(F)c2)nc2cccnc21 showed an RP-LC retention time of 694 s.

In the case of CCOc1ccccc1C(=O)N(CC)c1nc(-c2ccc(C)cc2)cs1, the RP-LC retention time is reported as 1420 s.

C[C@@H]1CN(C(=O)NCc2ccco2)C[C@H]1c1nc(-c2ccncc2)no1 gave an RP-LC retention time of 676 s.

In the case of Cc1cc2n(n1)CCCN2C(=O)CCC(=O)Nc1ccc(Br)cc1F, the RP-LC retention time is reported as 735 s.

For O=C(CN1C(=O)CCc2cc(Br)ccc21)NCCN1CCc2ccccc2C1, the RP-LC retention time was 662 s.

With Cc1ccc(-n2c(N3CCC(C(=O)NC(C)c4ccc(F)cc4)CC3)nc3ccsc3c2=O)cc1 (centres undefined) the RP-LC retention time was 1010 s.

CCS(=O)(=O)N1CC(=O)N(c2ccc(F)cc2)C(C)(C(=O)NCc2ccc(F)cc2)C1 (centres undefined) gave an RP-LC retention time of 743 s.

In the case of CCOc1ccc(-c2ccc(=O)n(Cc3nc(-c4ccc5c(c4)OCO5)no3)n2)cc1, the RP-LC retention time is reported as 1050 s.

CN1C(=O)COc2cc(-c3noc(C(=O)N4CCCC4)n3)ccc21 gave an RP-LC retention time of 746 s.

In the case of COc1c(/C=N/NC(N)=O)c(OC)c(OC)c2c1CCO2, the RP-LC retention time is reported as 1080 s.

For COc1ccc(N2C(=O)CC(c3ccc(OC)c(OC)c3)CC2=O)cc1, the RP-LC retention time was 780 s.

CCc1ccc(NC(=O)Cn2nc(N3CCSCC3)c3ccccc3c2=O)cc1 showed an RP-LC retention time of 1040 s.

Compound COc1ccc(-c2nnc(SCC(=O)N3CCC(C)CC3)o2)cc1 has an RP-LC retention time of 914 s.

Compound O=c1c2ccccc2c(-c2nc(-c3cccnc3)no2)nn1-c1ccc(F)cc1 has an RP-LC retention time of 998 s.

In the case of COc1ccc(Cl)cc1C(=O)NCC(c1ccsc1)N1CCCC1 (centres undefined), the RP-LC retention time is reported as 582 s.

With O=C(COc1ccc(F)cc1)NC1(c2nc(-c3ccncc3)no2)CCCCC1 the RP-LC retention time was 934 s.

CCCN1C(=O)c2cc(S(=O)(=O)Nc3ccc(F)cc3)ccc2Oc2cccnc21 showed an RP-LC retention time of 1060 s.

Cc1cc(C)n(CCNC(=O)Nc2cccs2)n1 showed an RP-LC retention time of 603 s.

Work on CCOc1ccc(CN2CCC3(CC2)CC(O)CCO3)cc1 (centres undefined) yielded an RP-LC retention time of 593 s.

Cc1cc(C)cc(S(=O)(=O)N2CCC(C(=O)NCCc3csc(-c4ccccc4)n3)CC2)c1 gave an RP-LC retention time of 1020 s.

With CCc1cccc(C)c1NC(=O)C1CCN(S(C)(=O)=O)c2cc(C)ccc2O1 (centres undefined) the RP-LC retention time was 671 s.

N#Cc1cccc(Cn2c(-c3nc(-c4ccccc4)no3)cccc2=O)c1 gave an RP-LC retention time of 688 s.

Cc1nc(-c2cc(S(=O)(=O)N3CCCCC3C)c(C)s2)sc1C (centres undefined) gave an RP-LC retention time of 1220 s.

Work on Cc1ccc(CNC(=O)Cn2cccc2-c2nnc(-c3ccccc3)o2)o1 yielded an RP-LC retention time of 882 s.

Work on Cc1ccc(Nc2nc(-c3cccnc3)nc3ccccc23)cc1 yielded an RP-LC retention time of 742 s.

O=C(NCc1ccccc1)C1(CCO)CC12CCOCC2 (centres undefined) gave an RP-LC retention time of 627 s.

Compound N#Cc1cccc(NC(=O)N2CCCC2c2nc(-c3ccc(F)cc3F)no2)c1 (centres undefined) has an RP-LC retention time of 930 s.

Compound COc1ccc(NC(=O)N(C)CCc2noc(COc3ccccc3F)n2)c(OC)c1 has an RP-LC retention time of 877 s.

For CC(C)c1cc(C(=O)Nc2ccc(F)c(F)c2)no1, the RP-LC retention time was 1040 s.

For COc1cc2nc(C(=O)N3CCCCC3)cc(Nc3ccc(F)c(F)c3)c2cc1OC, the RP-LC retention time was 720 s.

With Cc1noc(COC2CCN(C(=O)c3ccc4ccccc4n3)CC2)n1 the RP-LC retention time was 707 s.

Compound COc1cccc(-c2noc(C3CCCN3C(=O)Nc3ccc4c(c3)OCO4)n2)c1 (centres undefined) has an RP-LC retention time of 896 s.

For COc1ccc(S(=O)(=O)N2CCC3(CC2)CC(C)(O)CCO3)cc1OC (centres undefined), the RP-LC retention time was 612 s.

Compound Cc1cccc(C)c1N1CCN(C(=O)c2cccc(F)c2)CC1 has an RP-LC retention time of 1030 s.

Work on COc1ccc(S(=O)(=O)N2CCCC(C(=O)NCC3CCCO3)C2)cc1Cl (centres undefined) yielded an RP-LC retention time of 785 s.

In the case of O=C(CCc1csc2nc(C3CC3)cn12)Nc1nc2ccccc2s1, the RP-LC retention time is reported as 594 s.
